Test results as given in patent US11161856B2 (H. Lundbeck A/S, priority 2017, dated 2021).

Tests used:
MAGL [1] = target: T1, MAGL (Homo sapiens, UniProt Q99685); assay: In vitro competitive activity-based protein profiling (FP-Rh or HT-01 probe, gel-based); type: biochemical; settings: for % Inh MGLL PFC (Human, μM): prefrontal cortex (PFC) proteome
T1 construct: Proteomes (human prefrontal cortex or cell membrane fractions); from tissue
T1 sequence (Q99685 1-303): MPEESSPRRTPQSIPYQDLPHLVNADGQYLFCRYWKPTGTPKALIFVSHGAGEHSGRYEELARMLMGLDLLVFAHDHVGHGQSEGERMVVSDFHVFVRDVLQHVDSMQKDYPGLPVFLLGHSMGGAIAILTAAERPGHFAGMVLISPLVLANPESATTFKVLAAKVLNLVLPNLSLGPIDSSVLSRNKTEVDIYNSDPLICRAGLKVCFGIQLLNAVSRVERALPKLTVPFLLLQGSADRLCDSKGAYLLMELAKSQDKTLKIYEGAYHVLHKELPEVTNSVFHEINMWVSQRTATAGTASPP
Summary of the method: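 Human prefrontal cortex or cell membrane proteomes (1.0 mg/mL total protein) were preincubated with varying inhibitor concentrations for 30 min at 37° C. FP-Rh or HT-01 probe (50 μM DMSO stock) was then added for 30 min at room temperature, and samples were quenched in SDS loading buffer and resolved by SDS-PAGE.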

MGLL = target: T2, MGLL (Mus musculus, UniProt O35678); assay: In vitro competitive activity-based protein profiling, mouse brain proteome (MGLL); type: biochemical; settings: for % Inh MGLL Brain (Mouse, μM): concentration not given (μM)
T2 construct: Brain; from tissue; host or cells: mouse brain proteome
T2 sequence (O35678 1-303): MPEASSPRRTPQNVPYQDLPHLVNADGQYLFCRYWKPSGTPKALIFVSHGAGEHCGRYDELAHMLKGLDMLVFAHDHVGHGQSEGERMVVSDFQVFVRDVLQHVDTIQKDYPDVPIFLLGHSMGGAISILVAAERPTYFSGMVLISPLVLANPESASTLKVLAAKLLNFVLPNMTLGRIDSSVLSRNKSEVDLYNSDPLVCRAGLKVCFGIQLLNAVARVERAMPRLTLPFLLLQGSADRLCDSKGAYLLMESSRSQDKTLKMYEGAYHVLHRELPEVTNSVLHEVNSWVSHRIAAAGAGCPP

ABHD6 = target: T3, ABHD6 (Mus musculus, UniProt Q8R2Y0); assay: In vitro competitive activity-based protein profiling, mouse brain proteome (ABHD6); type: biochemical; settings: for % Inh ABHD6 Brain (Mouse, μM): mouse brain proteome, concentration not given (μM)
T3 construct: Brain; from tissue; host or cells: mouse brain proteome
T3 sequence (Q8R2Y0 1-336): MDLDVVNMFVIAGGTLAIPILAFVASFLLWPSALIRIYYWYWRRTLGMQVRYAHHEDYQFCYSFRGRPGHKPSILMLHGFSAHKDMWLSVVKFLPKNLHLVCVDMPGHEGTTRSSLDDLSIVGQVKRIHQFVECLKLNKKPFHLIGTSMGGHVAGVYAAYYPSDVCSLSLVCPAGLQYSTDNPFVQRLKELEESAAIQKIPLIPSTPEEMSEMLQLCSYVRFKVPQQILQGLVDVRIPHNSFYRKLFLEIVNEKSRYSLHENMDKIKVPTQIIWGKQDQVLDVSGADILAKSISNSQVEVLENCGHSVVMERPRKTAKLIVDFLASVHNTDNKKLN
Method: [The source words this procedure for another target and reports this target under the same test.] In Vitro Competitive Activity-Based Protein Profiling.
Proteomes (human prefrontal cortex or cell membrane fractions) (50 μL, 1.0 mg/mL total protein concentration) were preincubated with varying concentrations of inhibitors at 37° C. After 30 min, FP-Rh or HT-01 (1.0 μL, 50 μM in DMSO) was added and the mixture was incubated for another 30 min at room temperature. Reactions were quenched with SDS loading buffer (15 μL-4×) and run on SDS-PAGE.

MAGL [2] = target: T4, MAGL (Mus musculus, UniProt O35678); assay: Mouse brain proteomes from inhibitor treated mice (oral gavage, brain proteome ABPP 4 h after administration); type: in vivo; settings: mouse brain proteome 4 h after administration
T4 construct: from tissue; host or cells: brain of wild-type C57Bl/6J mice dosed by oral gavage
T4 sequence (O35678 1-303): T2 sequence (O35678 1-303)
Method: Preparation of Mouse Brain Proteomes from Inhibitor Treated Mice.
Inhibitors were administered to wild-type C57B1/6J by oral gavage in a vehicle of polyethylene glycol. Each animal was sacrificed 4 h following administration and brain proteomes were prepared and analyzed according to previously established methods (See Niphakis, M. J., et al. (2011) ACS Chem. Neurosci. and Long, J. Z., et al. Nat. Chem. Biol. 5:37-44).

Compound	% Inh MGLL PC3 (Human, μM) (MAGL [1]; PC3 cell proteome, concentration not given (μM))	IC50 (MAGL [1]; PC3 cell proteome, read-out: IC50 MGLL PC3 (Human)) [µM]	% Inh MGLL Brain (Mouse, μM) (MGLL)	% Inh ABHD6 Brain (Mouse, μM) (ABHD6)	% Inh 5 mg/kg MGLL (Mouse) (MAGL [2])	IC50 (MGLL) [µM]	IC50 (ABHD6; mouse proteome) [µM]	% Inh MGLL PFC (Human, μM) (MAGL [1]; concentration not given (μM))
O=C(O)[C@@H]1CCCN1C1CCN(c2cc(C(F)(F)F)ccc2CN2CCCC23CCN(C(=O)OC(C(F)(F)F)C(F)(F)F)CC3)CC1 [Example 164, (1-(2-((8-(((1,1,1,3,3,3-Hexafluoropropan-2-yl)oxy)carbonyl)-1,8-diazaspiro[4.5]decan-1-yl)methyl)-5-(trifluoromethyl)phenyl)piperidin-4-yl)-L-proline]	### (### is ≥75%)	< 0.1	### (### is ≥75%)	# (# is ≤25%)				
CS(=O)(=O)N1CCC2(CC1)CN(c1cc(C(F)(F)F)ccc1CN1CCN(C(=O)OC(C(F)(F)F)C(F)(F)F)CC1)C2 [Example 207, 1,1,1,3,3,3-Hexafluoropropan-2-yl 4-(2-(7-(methylsulfonyl)-2,7-diazaspiro[3,5]nonan-2-yl)-4-(trifluoromethyl)benzyl) piperazine-1-carboxylate]			### (### is ≥75%)	## (## is between 25 and 75%)	### (### is ≥75%)	< 0.1	> 1	
O=C(O)C1CCN(c2c(Cl)cccc2CN2CCC3(CC2)CCN(C(=O)OC(C(F)(F)F)C(F)(F)F)C3)CC1 [Example 218, l-(2-Chloro-6-{(2-(((1,1,1,3,3,3-hexafluoropropan-2-yl)oxy)carbonyl)-2,8-diazaspiro[4.5]decan-8-yl)methyl)phenyl)piperidine-4-carboxylic acid]			### (### is ≥75%)	# (# is ≤25%)				### (### is ≥75%)
O=C(O)C1CCN(c2ccc(CN3CCC4(CC3)CCN(C(=O)OC(C(F)(F)F)C(F)(F)F)C4)cc2C(F)(F)F)CC1 [Example 219, l-(4-((2-(((1,1,1,3,3,3-Hexafluoropropan-2-yl)oxy)carbonyl)-2,8-diazaspiro[4.5]decan-8-yl)methyl)-2-(trifluoromethyl)phenyl) piperidine-4-carboxylic acid]			## (## is between 25 and 75%)	### (### is ≥75%)				### (### is ≥75%)
O=C(O)C1CCN(Cc2cc(C(F)(F)F)ccc2CN2CCC3(CC2)CCN(C(=O)OC(C(F)(F)F)C(F)(F)F)C3)CC1 [Example 220, l-(2-((2-(((1,1,1,3,3,3-Hexafluoropropan-2-yl)oxy)carbonyl)-2,8-diazaspiro[4.5]decan-8-yl)methyl)-5-(trifluoromethyl)benzyl) piperidine-4-carboxylic acid]			## (## is between 25 and 75%)	# (# is ≤25%)				## (## is between 25 and 75%)
O=C(O)C1CCN(c2cc(CN3CCC4(CC3)CCN(C(=O)OC(C(F)(F)F)C(F)(F)F)C4)ccc2C(F)(F)F)CC1 [Example 221, 1-(5-((2-(((1,1,1,3,3,3-Hexafluoropropan-2-yl)oxy)carbonyl)-2.8-diazaspiro[4.5]decan-8-yl)methyl)-2-(trifluoromethyl)phenyl) piperidine-4-carboxylic acid]			### (### is ≥75%)	### (### is ≥75%)				### (### is ≥75%)
O=C(O)C1CCN(c2cc(S(F)(F)(F)(F)F)ccc2CN2CCC3(CC2)CCN(C(=O)OC(C(F)(F)F)C(F)(F)F)C3)CC1 [Example 222, l-(2-((2-(((1,1,1,3,3,3-Hexafluoropropan-2-yl)oxy)carbonyl)-2,8-diazaspiro[4.5]decan-8-yl)methyl)-5-(pentafluoro-16-sulfaneyl)phenyl)piperidine-4-carboxylic acid]			### (### is ≥75%)	## (## is between 25 and 75%)				### (### is ≥75%)
O=C(O)C1CCN(Cc2cc(CN3CCC4(CC3)CCN(C(=O)OC(C(F)(F)F)C(F)(F)F)C4)cc(C(F)(F)F)c2)CC1 [Example 223, l-(3-((2-(((1,1,1,3,3,3-Hexafluoropropan-2-yl)oxy)carbonyl)-2,8-diazaspiro[4.5]decan-8-yl)methyl)-5-(trifluoromethyl)benzyl) piperidine-4-carboxylic acid]			# (# is ≤25%)	# (# is ≤25%)				## (## is between 25 and 75%)
O=C(O)C1CCN(Cc2cc(CN3CCC4(CC3)CCN(C(=O)OC(C(F)(F)F)C(F)(F)F)C4)ccc2Cl)CC1 [Example 224, l-(2-Chloro-5-((2-(((1,1,1,3,3,3-hexafluoropropan-2-yl)oxy)carbonyl)-2,8-diazaspiro[4.5]decan-8-yl)methyl)benzyl)piperidine-4-carboxylic acid]			## (## is between 25 and 75%)	# (# is ≤25%)				# (# is ≤25%)
O=C(O)C1CCN(Cc2ccc(CN3CCC4(CC3)CCN(C(=O)OC(C(F)(F)F)C(F)(F)F)C4)cc2C(F)(F)F)CC1 [Example 225, l-(4-((2-(((1,1,1,3,3,3-Hexafluoropropan-2-yl)oxy)carbonyl)-2,8-diazaspiro[4.5]decan-8-yl)methyl)-2-(trifluoromethyl)benzyl) piperidine-4-carboxylic acid]			# (# is ≤25%)	## (## is between 25 and 75%)				## (## is between 25 and 75%)
O=C(O)C1CCN(c2cc(CN3CCC4(CC3)CCN(C(=O)OC(C(F)(F)F)C(F)(F)F)C4)cc(S(F)(F)(F)(F)F)c2)CC1 [Example 226, 1-(3-((2-(((1,1,1,3,3,3-Hexafluoropropan-2-yl)oxy)carbonyl)-2,8-diazaspiro[4.5]decan-8-yl)methyl)-5-(pentafluoro-16-sulfancyl)phenyl)piperidine-4-carboxylic acid]			### (### is ≥75%)	## (## is between 25 and 75%)				### (### is ≥75%)
CC1(OCc2cc(N3CCC(C(=O)O)CC3)cc(C(F)(F)F)c2)CCN(C(=O)OC(C(F)(F)F)C(F)(F)F)CC1 [Example 227, l-(3-(((1-(((1,1,1,3,3,3-Hexafluoropropan-2-yl)oxy)carbonyl)-4-melhylpiperidin-4-yl)oxy)methyl)-5-(trifluoromethyl)phenyl) piperidine-4-carboxylic acid]			### (### is ≥75%)	## (## is between 25 and 75%)				### (### is ≥75%)
